Results as given in PMC8201479, “Trisubstituted Pyrrolinones as Small-Molecule Inhibitors Disrupting the Protein–RNA Interaction of LIN28 and Let-7” (ACS Medicinal Chemistry Letters, 2021).

Experiments:
[1] = molecular target: T1, cold shock domain of LIN28A (residues 16–126) (Homo sapiens, UniProt Q9H9Z2); test: Thermal shift assay (nano-differential scanning fluorimetry); assay type: binding; conditions: 30 µM protein, compound 100 µM to 0.78 µM
T1 construct: cold shock domain construct LIN28 A (residues 16– 126)
T1 sequence (Q9H9Z2 16-126): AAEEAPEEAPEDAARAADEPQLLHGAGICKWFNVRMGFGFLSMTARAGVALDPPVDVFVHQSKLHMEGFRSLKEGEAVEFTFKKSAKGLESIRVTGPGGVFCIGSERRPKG
Procedure: was detected after incubation at room temperature using a TECAN Spark plate reader. Half maximal […]
inhibitory concentrations (IC50) were determined using GraphPad Prism 7.
Compound screening. High throughput screening was performed in low volume 384 well plates […]
(Corning 4514) with 30 µM compound, 40 nM LIN28A, and 2 nM preE-let-7f-1-FAM in FP assay […]
buffer. Compounds were transferred with an ECHO 520 liquid handler and protein and RNA were […]
added with a multidrop dispenser. Protein and RNA were added stepwise with a 30 min incubation […]
period in between. FP was detected after a final incubation of 15 min with an Envision plate reader […]
and fluorescence was measured with a Paradigm plate reader. A reaction without LIN28 served as a […]
negative control and one without compound was used as a positive control. The software Quattro […]
fluorescence was detected with a ChemiDoc M P (Bio-Rad) and 2 minutes of exposure time. […]
126) with and without compound was monitored using a NanoTemper Prometheus NT.48 nano - […]
differential scanning fluorimetry (nanoDSF) instrument at temperatures between 20 °C and 90 °C and a temperature slope of 1 °C per minute with an excitation power of 50–60 %. […] The ratio of intrinsic tryptophan fluorescence at 350 nm and 330 nm was measured and the first derivative was determined to detect the inflection points using the software of the device. […]

JAR cells = test: RT-qPCR of mature let-7 in JAR cells; assay type: cell-based, human; conditions: 24 h treatment
Procedure: differential scanning fluorimetry (nanoDSF) instrument at temperatures between 20 °C and 90 °C and a temperature slope of 1 °C per minute with an excitation power of 50–60 %. A total protein concentration of 30 µM and compound concentrations from 100 µM to 0.78 µM corresponding to […] to 0.039 % DMSO, respectively, were used. Compound and protein were incubated for 45 minutes at room temperature in buffer containing 30 mM NaH2PO4, 50 mM NaCl, 1 mM MgCl2, and 50 µM ZnCl2 at pH 8 and 10 µL sample was loaded to each nanoDSF standard capillary (NanoTemper). The ratio of intrinsic tryptophan fluorescence at 350 nm and 330 nm was measured and the first derivative was determined to detect the inflection points using the software of the device.
RT-qPCR. JAR cells (obtained from DSMZ, German Collection of Microorganisms and Cell Cultures, Braunschweig, Germany, DSMZ no. ACC462)1 were cultured in 24-well plates and treated with the compound (PH-31) for 24 h with a total DMSO concentration of 0.5 % in all wells. RNA was extracted using RNeasy Mini Kit (Qiagen) and 20 ng of total RNA was used for reverse transcription using the TaqMan microRNA Reverse Transcription Kit (Applied Biosystems) following the manufacturer's protocols. […]

## O=C(C1=C(O)C(=O)N(c2ccc(O)c(C(=O)O)c2)C1c1ccc(-c2nccs2)cc1)c1ccc(Br)cc1 (stereo not drawn) [C902/PH-31]
[1]
  thermal stability of the CSD of LIN28A: concentration-dependent enhancement
JAR cells
  level of mature let-7a: increased levels
  level of mature let-7g: increased levels
